From patent US10328062B2, “Biomarkers and use of MET inhibitor for treatment of cancer” (AMGEN, INC., priority 2014, dated 2019)
Read-outs that look alike come from different tables or passages of the source.

How the values were obtained:
NCI-H1648 = assay: 72 hour cancer cell line viability assay (CellTiter-Glo); type: cell-based; conditions: Homo sapiens; NCI-H1648, NSCLC; MET copy number Low, focal Yes; 72 hour viability
Method: (§1) Human cancer cell lines were purchased from ATCC, JCRB, Sigma Aldrich or DSMZ. All cell lines were propagated in growth media per the suppliers' recommendation and maintained in 5% CO2 and 37° C.
(§2) Cancer cell line viability assays were carried out using the CellTiter-Glo Luminescent Cell Viability Assay from Promega (Madison, Wis.). Optimal cell seeding densities were determined using time lapse imaging to maximize signal window and ensure cells were not contact growth inhibited at the 72 hour time point. Cells were seeded in 96 well plates in complete growth media and allowed to adhere to the bottom of the plate by incubation at 37° C. and 5% CO2 overnight. […] Plates were incubated at 37° C. and 5% CO2 for 72 hours. Treated plates were then allowed to equilibrate to room temperature along with, CellTiter-Glo substrate and buffer solution prior to use in the viability assay. CellTiter-Glo substrate vials were reconstituted in 10 mL of buffer solution and added to assay plates in 100 μL/well volumes. Plates were shaken for 2 minutes at 700 rotations per minute with an orbit diameter of 3 mm followed by room temperature incubation for 10 minutes. Plates were then read using an Envision plate reader on luminescent setting.
(§3) Threshold for high vs low MET copy number was set at aCGH log 2 ratio of 2.5. Focal nature of MET copy number increase was defined qualitatively using tiled aCGH results for chromosome 7.

EBC-1 = assay: as above; type: cell-based; conditions: Homo sapiens; EBC-1, NSCLC; MET copy number High, focal Yes; 72 hour viability
Method: as §1, §2, §3

Alexander = assay: as above; type: cell-based; conditions: Homo sapiens, Liver, MET copy number Low, focal No, 72 hour viability
Method: as §1, §2, §3

NUGC-4 = assay: as above; type: cell-based; conditions: Homo sapiens; NUGC-4, Gastric; MET copy number Low, focal Yes; 72 hour viability
Method: as §1, §2, §3

C32 = assay: as above; type: cell-based; conditions: Homo sapiens; C32, Melanoma; MET copy number Low, focal No; 72 hour viability
Method: as §1, §2, §3

HCC1395 = assay: as above; type: cell-based; conditions: Homo sapiens; HCC1395, breast; MET copy number Low, focal No; 72 hour viability
Method: as §1, §2, §3

NCI-H820 = assay: as above; type: cell-based; conditions: Homo sapiens; NCI-H820, NSCLC; MET copy number Low, focal No; 72 hour viability
Method: as §1, §2, §3

Malme-3M = assay: as above; type: cell-based; conditions: Homo sapiens, Melanoma, MET copy number Low, focal No, 72 hour viability
Method: as §1, §2, §3

G-361 = assay: as above; type: cell-based; conditions: Homo sapiens; G-361, Melanoma; MET copy number Low, focal No; 72 hour viability
Method: as §1, §2, §3

NCI-H2342 = assay: as above; type: cell-based; conditions: Homo sapiens; NCI-H2342, NSCLC; MET copy number Low, focal No; 72 hour viability
Method: as §1, §2, §3

OE33 = assay: as above; type: cell-based; conditions: Homo sapiens; OE33, Esophagus; MET copy number High, focal Yes; 72 hour viability
Method: as §1, §2, §3

NCI-H1573 = assay: as above; type: cell-based; conditions: Homo sapiens
Method: as §1, §2, §3

Hs 746T = assay: as above; type: cell-based; conditions: Homo sapiens, Hs746T, Gastric, MET copy number High, focal Yes, 72 hour viability
Method: as §1, §2, §3

HOP-92 = assay: as above; type: cell-based; conditions: Homo sapiens; HOP-92, NSCLC; MET copy number Low, focal No; 72 hour viability
Method: as §1, §2, §3

CAL-54 = assay: as above; type: cell-based; conditions: Homo sapiens; CAL-54, Kidney; MET copy number Low, focal No; 72 hour viability
Method: as §1, §2, §3

AU-565 = assay: as above; type: cell-based; conditions: Homo sapiens, AU565; AU-565, Breast; MET copy number Low, focal No; 72 hour viability
Method: as §1, §2, §3

[1] = 28-day rat toxicology study; conditions: in vivo
[2] = system: MET signaling (phospho-MET, phospho-Gab1, phospho-AKT, phospho-ERK) in MKN45, SNU-620 and SNU-5; assay: Immunoblot analysis of PI3K and MAPK signaling pathways; type: cell-based, Human; conditions: 100 nM, 2 hours
Method: Cells were seeded in 10 cm dishes at varying densities and allowed to adhere by incubating at 37° C. and 5% CO2 overnight. […] Cells were harvested in 250 μL lysis buffer containing protease and phosphatase inhibitors. For suspension cell lines, cells were pelleted prior to lysis buffer addition. Protein concentrations for individual lysates were measured using a BCA protein assay. 25 μg of protein lysate per sample was resolved on Life Technologies (Carlsbad, Calif.) NuPAGE Bis-Tris gels per manufacturer's. Samples were transferred to nitrocellulose membranes for Western blot analysis. Membranes were blocked in 5% milk prepared in TBST for 1 hour at room temperature. Total and phospho-specific antibodies for specified endpoints were used at 1:1000 dilutions in 5% milk/TBST (total) or 5% BSA/TBST (phospho). Membranes were incubated in the presence of appropriate primary antibody overnight at 4° C. Secondary anti-species-IgG HRP conjugated antibodies were diluted 1:5000 in 5% milk/TBST and incubated in the presence of membranes for 1 hour at room temperature. Membranes were exposed to Thermo Scientific (Waltham, Mass.) Super Signal PICO West ECL detection reagent per manufacturer's recommended protocol and exposed to film to document signal.
Antibodies detecting total and phospho-MET (Y1234/1235), phospho-Gab1 (Y627), total and phospho-AKT (S473), total and phospho-ERK (T202/Y204), cleaved caspase-3, and cleaved PARP were purchased from Cell Signaling Technologies (Beverly, Mass.). The total β-actin antibody was purchased from Thermo Scientific (Waltham, Mass.). Both secondary anti-rabbit and anti-mouse IgG-HRP conjugated antibodies were purchased from Thermo Scientific (Waltham, Mass.).
Subsequent lysates were analyzed by SDS-PAGE and immunoblot using antibodies detecting total and phospho-MET (Y1234/[…]), phospho-Gab1 (Y627), total and phospho-AKT (S473), and total and phospho-ERK 1/2 (T202/Y204).

Q: For COCCOc1cnc2ccn([C@H](C)c3nnc4c(F)cc(-c5cnn(C)c5)cn34)c(=O)c2c1 [Compound M, 6-{(1R)-1-[8-fluoro-6-(1-methyl-1H-pyrazol-4-yl)[1,2,4]triazolo[4,3-a]pyridin-3-yl]ethyl}-3-(2-methoxyethoxy)-1,6-naphthyridin-5(6H)-one], which IC50 (NCI-H1648) is on record?
A: > 3000 nM

Q: And the IC50 (EBC-1)?
A: 8 nM

Q: And the IC50 (Alexander)?
A: > 3000 nM

Q: And the IC50 (NUGC-4)?
A: > 3000 nM

Q: And the IC50 (C32)?
A: > 3000 nM

Q: And the IC50 (HCC1395)?
A: > 3000 nM

Q: And the IC50 (NCI-H820)?
A: > 3000 nM

Q: What about the IC50 (Malme-3M) of the same compound?
A: > 3000 nM

Q: What about the IC50 (G-361) of the same compound?
A: > 3000 nM

Q: And the IC50 (NCI-H2342)?
A: > 3000 nM

Q: What about the IC50 (OE33) of the same compound?
A: 3 nM

Q: And the IC50 (NCI-H1573; NCI-H1573, NSCLC, MET copy number High, focal Yes, 72 hour viability, read-out: IC50)?
A: > 3000 nM

Q: What about the IC50 (NCI-H1573; NCI-H1573, high level focal MET amplification (log 2 ratio=2.9), KRAS G12A, read-out: viability assay IC50) of the same compound?
A: > 3000 nM

Q: What about the IC50 (Hs 746T) of the same compound?
A: 3 nM

Q: What about the IC50 (HOP-92) of the same compound?
A: > 3000 nM

Q: And the IC50 (CAL-54)?
A: > 3000 nM

Q: What about the IC50 (AU-565) of the same compound?
A: > 3000 nM

Q: What about the AUC(0-t) [1] of the same compound?
A: 82400 ng·h/mL

Q: What about the Cmax [1] of the same compound?
A: 12300 ng/mL

Q: What about the “Phosphorylation of Gab1 (Y627)” value [2] of the same compound?
A: inhibited

Q: What about the “Phosphorylation of MET (Y1234/1235)” value [2] of the same compound?
A: inhibited

Q: What about the “phospho-AKT (S473), PI3K pathway” value [2] of the same compound?
A: reduction

Q: And the “phospho-ERK (T202/Y204), MAPK pathway” value [2]?
A: reduction
